Where two headings read alike, the source gives them in different places.
Assays:
IL-6 = conditions: 24 hours after CLP
Method: (§1) Cecal ligation and puncture (CLP) or sham surgery were performed on 9-week-old C57BL/6 male mice. Then, the CLP model mice were forced to inhale a 7% hydrogen gas. The inhalation time were two hours per day for one group and continuous 24 hours for the other group. The mice were housed in a chamber in which the concentration of a hydrogen gas could be maintained by a constant supply of a hydrogen gas from a gas generating apparatus (MHG-2000α manufactured by MiZ Company Limited), and forced to inhale the hydrogen gas therein. The mice in the control group were forced to inhale air not containing hydrogen. Mice were bred under a hydrogen gas atmosphere for one week, and the survival rate was evaluated. The serum inflammatory cytokine levels were evaluated using a Quantikine ELISA Kit (INFO) at 24 hours after CLP. The liver, the intestine, and the lung of mice were evaluated by RNA sequencing after inhalation of a hydrogen gas. Data were analyzed using Ingenuity Pathways Analysis (IPA: Qiagen Inc.). Additionally, expression of inflammatory genes in the intestine was investigated by RT-PCR.

TNF-α = conditions: 24 hours after CLP
Method: as §1

[1] = CLP model mice, hydrogen gas treatment group; comparison value 74 mg/dL
Method: as §1

[2] = system: cecal ligation and puncture (CLP) model mice
Method: as §1

[3] = system: genes related to glycolysis and gluconeogenesis; inflammatory signal transduction pathways
Method: as §1

[4] = after inhalation of a hydrogen gas
[5] = room temperature, normal pressure; cited from earlier work

[HH] [hydrogen gas, molecular hydrogen]
serum IL-6 level (IL-6): attenuated
serum TNF-α level (TNF-α): attenuated
blood glucose level [1]: 127 mg/dL
survival rate ([2]; 7% hydrogen gas, continuous inhalation over 24 hours for 7 days, control 40%, p<0.05, n=20 vs. 20): 75%
survival rate ([2]; continuous inhalation time increased to five hours, 12 hours, and 24 hours): improved
survival rate vs control ([2]; continuous inhalation time per day one hour): no difference from control was observed
survival rate vs control ([2]; continuous inhalation time two hours): differences started to be observed
change in levels of genes vs control ([3]; hydrogen inhalation time two hours or longer per day): differences started to be observed
inflammatory signal transduction pathways (acute phase response signaling, STAT pathway), z-scores ([3]; liver and intestine of the CLP model at 24 hours): inactive
genes related to glycolysis and gluconeogenesis ([3]; liver, GO and pathway enrichment analysis): upregulation
time for hydrogen to reach the liver [4]: ≥ 10 min
time for hydrogen to reach the lung [4]: rapidly
concentration dissolved in water (solubility) [5]: approximately 1.6 ppm

From patent publication US20210275577A1, “MOLECULAR HYDROGEN-CONTAINING COMPOSITION FOR REGULATING INTRACELLULAR SIGNAL TRANSDUCTION” (MiZ Company Limited, priority 2020, published 2021)
